Some test systems named below: Escherichia coli O157; Listeria monocytogenes; Salmonella typhimurium; Streptococcus mutans; Bacillus subtilis 1A751; Escherichia coli DC2; Escherichia coli UB1005; Escherichia coli D31.
What all share (assay): ≥ marks a high value that may be exact or a test limit, other limits are often not marked, values filed in µg/mL are converted to µM
The test system of assay [1] is Escherichia coli ATCC 25404.
For assay [2], the system named is Micrococcus luteus ATCC 10420.
Assay [3] concerns Staphylococcus aureus ATCC 29213.
In assay [4] the test system is Staphylococcus aureus ATCC 43300.
Assay [5] relates to Staphylococcus epidermidis ATCC 9709.
The subject of assay [6] is Candida albicans CIB 45437.
Assay [7] has as its system Escherichia coli ATCC 25922.
The subject of assay [8] is Escherichia coli CIB 84492.
The test system of assay [9] is Staphylococcus aureus ATCC 25923.
Assay [10] relates to Staphylococcus aureus CIB 85462.
Assay [11] has as its system Bacillus subtilis ATCC 6633.
In assay [12] the test system is Candida albicans ATCC 20032.
Assay [13] has as its system Lacticaseibacillus casei ATCC 4646.
Assay [14] relates to Streptococcus gordonii Challis DL1.
In assay [15] the test system is Streptococcus mitis ATCC 903.
The test system of assay [16] is Streptococcus sanguinis NY101.
Assay [17] has as its system Veillonella atypica PK1910.
In assay [18] the test system is Salmonella enterica subsp. enterica serovar Choleraesuis CMCC 50020.
Assay [19] concerns Corynebacterium xerosis C875.
For assay [20], the system named is Enterococcus faecalis ATCC 29212.
For assay [21], the system named is Pseudomonas aeruginosa ATCC 27853.
Assay [22] concerns Staphylococcus epidermidis C621.
Assay [23] has as its system Candida albicans ATCC 14053.
Assay [24] deals with Candida tropicalis ATCC 13803.

The record followed here is DBAASP.

Each structure is given as a SMILES string. In brackets after ≈: the same amount, converted by molar mass.

Broadly, the MIC is the lowest concentration that inhibits growth of the organism. Read a high MIC as a need for much substance. With `CC(C)C[C@H](NC(=O)[C@H](CC(C)C)NC(=O)[C@H](Cc1cnc[nH]1)NC(=O)[C@H](CO)NC(=O)[C@H](CC(C)C)NC(=O)[C@H](C)NC(=O)[C@H](Cc1cnc[nH]1)NC(=O)[C@H](Cc1ccccc1)NC(=O)[C@H](CC(C)C)NC(=O)[C@H](C)NC(=O)CNC(=O)[C@H](CC(C)C)NC(=O)[C@@H](N)Cc1ccccc1)C(=O)O` [FLGALFHALSHLL], the MIC in assay [1] was at least 64 µM; against Escherichia coli O157, at least 64 µM; in the assay on Listeria monocytogenes, at least 64 µM; in [2], 8 µM (≈ 11.5 µg/mL); with Salmonella typhimurium, at least 64 µM; in assay [3] it was 8 µM (≈ 11.5 µg/mL). Moreover, the MIC in assay [4] and in assay [5] was 16 µM (≈ 23 µg/mL) each time.

For the compound `CC[C@H](C)[C@H](NC(=O)CN)C(=O)N[C@@H](Cc1ccccc1)C(=O)NCC(=O)N[C@@H](CCCCN)C(=O)N[C@H](C(=O)N[C@@H](CC(C)C)C(=O)NCC(=O)N[C@H](C(=O)NCC(=O)N[C@@H](CCCCN)C(=O)N[C@@H](CCCCN)C(=O)N[C@H](C(=O)N[C@@H](CC(C)C)C(=O)N[C@H]1CSSC[C@@H](C(=O)O)NC(=O)[C@H](CCSC)NC(=O)CNC(=O)[C@H](CO)NC(=O)[C@H](CC(C)C)NC(=O)CNC1=O)C(C)C)C(C)C)[C@@H](C)CC` [GIFGKILGVGKKVLCGLSGMC], the MIC in [6] was found to be 30.8 µM (≈ 63.9 µg/mL); in [7], 15.4 µM (≈ 32 µg/mL); in assay [8], 15.4 µM (≈ 32 µg/mL); in assay [9], 7.69 µM (≈ 16 µg/mL); in assay [10], 7.69 µM (≈ 16 µg/mL).

On to `CC[C@H](C)[C@H](NC(=O)CN)C(=O)NCC(=O)NCC(=O)N[C@@H](CCCCN)C(=O)N[C@H](C(=O)N[C@@H](CC(C)C)C(=O)NCC(=O)NCC(=O)N[C@@H](CC(C)C)C(=O)N[C@@H](CCCCN)C(=O)N[C@H](C(=O)N[C@@H](C)C(=O)N[C@@H](CC(C)C)C(=O)N[C@@H](CCCCN)C(=O)NCC(=O)N[C@@H](C)C(=O)N[C@@H](C)C(=O)N[C@@H](CCCCN)C(=O)N[C@@H](CCC(=O)O)C(=O)N[C@@H](CC(C)C)C(=O)N[C@@H](C)C(=O)N[C@@H](CO)C(=O)N[C@H](C(=O)N[C@@H](Cc1ccc(O)cc1)C(=O)N[C@@H](CC(C)C)C(=O)N[C@@H](Cc1cnc[nH]1)C(N)=O)[C@@H](C)O)[C@@H](C)O)[C@@H](C)CC` [GIGGKILGGLKTALKGAAKELASTYLH], for which the minimal inhibitory concentration (MIC) in assay [11] was at least 37.5 µM; in [12], at least 37.5 µM; in assay [7], 7.05 µM (≈ 18.8 µg/mL); in assay [9], 3.52 µM (≈ 9.4 µg/mL).

Consider `CC[C@H](C)[C@H](N)C(=O)N[C@@H](CCCCN)C(=O)N[C@@H](CCC(N)=O)C(=O)N[C@@H](CC(C)C)C(=O)N[C@@H](CC(C)C)C(=O)N[C@@H](Cc1cnc[nH]1)C(=O)N[C@@H](Cc1ccccc1)C(=O)N[C@@H](Cc1ccccc1)C(=O)N[C@@H](CCC(N)=O)C(=O)N[C@@H](CCCN=C(N)N)C(=O)N[C@@H](Cc1ccccc1)C(=O)NCC(=O)NCC(=O)NCC(=O)N[C@@H](CCCN=C(N)N)C(=O)N[C@@H](Cc1c[nH]c2ccccc12)C(=O)N[C@@H](CCCN=C(N)N)C(=O)N[C@@H](Cc1c[nH]c2ccccc12)C(=O)N[C@@H](CCCN=C(N)N)C(=O)N[C@@H](Cc1c[nH]c2ccccc12)C(=O)N[C@@H](Cc1ccccc1)C(N)=O` [IKQLLHFFQRFGGGRWRWRWF], for which the minimal inhibitory concentration (MIC) came to 5.67 µM (≈ 16 µg/mL) in assay [13]; 11.3 µM (≈ 32 µg/mL) in assay [14]; 22.7 µM (≈ 64 µg/mL) in assay [15]; 2.83 µM (≈ 8 µg/mL) against Streptococcus mutans; 5.67 µM (≈ 16 µg/mL) in assay [16]; 2.83 µM (≈ 8 µg/mL) in assay [17].

Consider `CC[C@H](C)[C@H](NC(=O)[C@H](CCCCN)NC(=O)[C@@H](NC(=O)[C@H](CC(C)C)NC(=O)[C@@H](NC(=O)[C@H](CCCCN)NC(=O)[C@H](CC(C)C)NC(=O)[C@H](Cc1ccccc1)NC(=O)[C@H](Cc1ccccc1)NC(=O)[C@H](CCCCN)NC(=O)[C@@H](N)CCCCN)C(C)C)[C@@H](C)O)C(=O)N[C@@H](CCCN=C(N)N)C(=O)N[C@H]1CSSC[C@@H](C(=O)N[C@@H](CCCN=C(N)N)C(=O)N[C@H](C(=O)O)[C@@H](C)O)NC(=O)CNC(=O)CNC(=O)[C@H](C)NC(=O)[C@H](C(C)C)NC(=O)[C@H](CCCCN)NC1=O` [KKFFLKVLTKIRCKVAGGCRT], for which the MIC in the assay with Bacillus subtilis 1A751 is at least 53.4 µM; in [7] it was 3.34 µM (≈ 7.99 µg/mL); in assay [18], 6.67 µM (≈ 16 µg/mL); in assay [9], 3.34 µM (≈ 7.99 µg/mL).

For `C[C@H](NC(=O)[C@H](C)NC(=O)[C@H](CCCCN)NC(=O)[C@H](CCCCN)NC(=O)[C@@H](N)CCCCN)C(=O)N[C@@H](C)C(=O)N[C@@H](Cc1ccccc1)C(=O)N[C@@H](C)C(=O)N[C@@H](C)C(=O)N[C@@H](Cc1c[nH]c2ccccc12)C(=O)N[C@@H](C)C(=O)N[C@@H](C)C(=O)N[C@@H](Cc1ccccc1)C(=O)N[C@@H](C)C(=O)N[C@@H](CCCCN)C(=O)N[C@@H](CCCCN)C(=O)N[C@@H](CCCCN)C(N)=O` [KKKAAAFAAWAAFAKKK], the minimum inhibitory concentration (MIC) in assay [11] is 16 µM (≈ 29.4 µg/mL); in [19], 4 µM (≈ 7.34 µg/mL); in assay [20] it was above 32 µM; in assay [7] it was above 32 µM; with Escherichia coli DC2, 16 µM (≈ 29.4 µg/mL); against Escherichia coli UB1005 it was at least 32 µM. Also, the MIC in assay [21] is above 32 µM; in assay [9], above 32 µM; in assay [22], at least 32 µM.

Consider `CC[C@H](C)[C@@H]1NC(=O)CNC(=O)[C@H](CCCCN)NC(=O)[C@H](CC(N)=O)NC(=O)[C@H](CCCN=C(N)N)NC(=O)[C@H](CCCN=C(N)N)NC(=O)[C@@H](NC(=O)[C@H](CO)NC(=O)[C@H](CCC(N)=O)NC(=O)[C@H](CO)NC(=O)[C@H](CC(N)=O)NC(=O)[C@H](CCCN=C(N)N)NC(=O)[C@@H](NC(=O)CNC(=O)[C@@H](N)CCC(N)=O)C(C)C)CSSC[C@@H]2NC(=O)[C@H](CCCCN)NC(=O)[C@H](C(C)C)NC(=O)[C@H](CCC(N)=O)NC(=O)[C@H](C)NC(=O)CNC(=O)[C@H](CC(C)C)NC(=O)[C@@H]3CSSC[C@H](NC1=O)C(=O)N[C@@H](C(C)C)C(=O)N1CCC[C@H]1C(=O)N[C@@H]([C@@H](C)CC)C(=O)N[C@@H](CCCN=C(N)N)C(=O)N[C@@H](CSSC[C@@H](C(=O)N[C@@H](CCCN=C(N)N)C(=O)N[C@@H](CCCN=C(N)N)C(=O)N[C@@H](CCCCN)C(=O)O)NC2=O)C(=O)N1CCC[C@H]1C(=O)NCC(=O)N[C@@H](CO)C(=O)N[C@@H](CCSC)C(=O)N[C@@H](CCCN=C(N)N)C(=O)N[C@@H](CCC(N)=O)C(=O)N[C@@H]([C@@H](C)CC)C(=O)NCC(=O)N[C@@H]([C@@H](C)O)C(=O)N3` [QGVRNSQSCRRNKGICVPIRCPGSMRQIGTCLGAQVKCCRRK], for which the MIC was determined as 9.66 µM (≈ 44.8 µg/mL) in [23]; 4.87 µM (≈ 22.6 µg/mL) in assay [24]; 4.87 µM (≈ 22.6 µg/mL) against Escherichia coli D31; 19.1 µM (≈ 88.6 µg/mL) in assay [21]; 19.1 µM (≈ 88.6 µg/mL) in assay [3].
